Patent US20070105810A1, “THERAPEUTICS” (priority 2003, published 2007)
“Also recorded” adds a separate entry of the source. Where two headings read alike, the source gives them in different places.

Columns and labels:
[1] = system: myelin-basic protein (MBP) specific, CD4-positive rat T cells; experiment: In vitro proliferation assay (rat encephalitogenic T cells); format: cell-based; settings: for IC50: Rattus norvegicus, CD4 positive, 3H-thymidine incorporation; for proliferation: T-lymphocytes, summary statement
Experimental: A more downstream event of T cell activation was analyzed in myelin-basic protein (MBP) specific, CD4-positive rat T cells. These cells can be driven into proliferation by MBP presented by irradiated thymocytes or by the mitogen concanavalin A (ConA).
Resting MBP-GFP T cells were plated in 96-wells (5×10^4 well) and stimulated by the addition of thymocytes (1.5×10^6/well) and MBP ([…]) or ConA (1.25 μg/ml), respectively.
After 2 days 3H-thymidine (Amersham Biosciences) was added to the activated cells (final concentration 4 μCi/ml); after 16 h of incubation 3H-thymidine incorporation was measured (Matrix 9600-Direct Beta Counter Packad).
(§1) Cells were stimulated in presence of MBP-pulsed irradiated APCs and increasing concentrations of BZ194. After 48 h cells were collected for cytofluorometric cell count A and RNA extraction was performed for quantitative PCR analysis (IL2) B. Effect of BZ194 on pre-activated T cell blasts C. Amplification of MBP-specific T cells which had been incubated before in the presence of DMSO or 0.5 mM or 1 mM BZ194 D.
TMBP-GFP cells were co-cultured for 48 h in 96well plates (in DMEM 1% rat serum) with APCs in presence of specific antigen ([…]) or without. Amplification of TMBP-GFP cells was measured by cytofluorometry as described (Kawakami et al. 2005, J.I.). Their numbers were determined in relation to a known absolute number of added phycoerythrin-labeled plastic beads (Becton-Dickinson). The amplification rate was calculated in relation to the GFP+T cell numbers at day 0. Alternatively, [^3H]dT (2 Ci/mmol; Amersham-Buchler) incorporation was used to evaluate proliferation. The radioactive label present in the different cultures was determined as described (Flügel et al., 2001, Immunity)

[2] = system: myelin-basic protein (MBP) specific, CD4-positive rat T cell blasts; experiment: In vitro toxicity assay on T cell blasts; format: cell-based
Experimental: Resting MBP-GFP Tcells were plated in 96-wells (5×10^4/well). Substances to test were added at different concentration to the cells and incubated for 1 h.
Cells stimulated by the addition of thymocytes (1.5×10^6/well) and MBP.
Absolute numbers of MBP-GFP T cells were determined by quantitative cytofluorometrical analysis after 24 and 48 hours (FACS-Calibur BektonDickinson).
Activated MBP-GFP Tcells were also incubated with different concentration of substances to test and absolute numbers of MBP-GFP T cells were determined by quantitative cytofluorometrical analysis after 24 and 48 hours (FACS-Calibur BektonDickinson).
as §1

[3] = system: NAADP/Ca2+ signalling in Jurkat T cells; experiment: Ca2+ signalling evoked by microinjection of NAADP in Jurkat T cells; format: cell-based, human; settings: for NAADP-mediated Ca2+ signalling: T-lymphocytes, summary statement
Experimental: NAADP (final concentration 100 nM), IP3 (final concentration 4 μM), and BZ52 (final concentration 1 mM) were injected into single Jurkat T cells while [Ca^2+]i was analyzed by Ca^2+ imaging. Data are presented as mean±SEM (n=4 to 13).
Effect of NAADP-microinjection and co-injection with BZ52 (1 mM) on [Ca^2+]i in human Jurkat T-Lymphocytes. Upper panel: microinjection of 100 nM NAADP (arrow), middle panel: microinjection of the vehicle buffer (arrow), lower panel: co-microinjection of 100 nM NAADP plus 1 mM BZ52 (arrow).
The Jurkat T cells were loaded with fura-2/AM and kept in the dark at room temperature until use. Glass coverslips were coated first with BSA (5 mg/ml) and subsequently with poly-L-lysine (0.1 mg/ml). Small chamber slides consisting of a rubber O-ring were sealed on thin (0.1 mm) glass coverslips by silicon grease. Then, 60 μl buffer A containing 140 mM NaCl, 5 mM KCl, 1 mM MgSO4, 1 mM CaCl2, 1 mM NaH2PO4, 5.5 mM glucose, and 20 mM HEPES (pH 7.4), and 40 μl cell suspension (2*10^6 cells/ml) suspended in the same buffer were added into the small chamber and the coverslip was mounted on the stage of a fluorescence microscope (Leica DM IRE2).
Ratiometric Ca^2+ imaging was performed as described earlier. In brief, we used an Improvision imaging system (Heidelberg, Germany) built around the Leica microscope at 100-fold magnification. Illumination at 340 and 380 nm was carried out using a monochromator system (Polychromator IV, TILL Photonics, Graefelfing, Germany). Images were taken with a gray-scale CCD camera (type C4742-95-12ER; Hamamatsu, Enfield, United Kingdom; operated in 8-bit mode). The optimal relation of spatial to temporal resolution for the ratiometric measurements was obtained using a spatial resolution of 512×640 pixel, resulting in a pixel length of 129 nm/pixel (at 100-fold magnification). […]
Ratiometric Ca^2+ imaging—The cells were loaded with fura-2/AM and kept in the dark at room temperature until use. […] The coverslip with cells slightly attached to the BSA/poly-L-lysine coating was mounted on the stage of a fluorescence microscope (Leica DM IRE2). […]

Compound | IC50 ([1]; light or radiation study, MBP presented by irradiated thymocytes, read-out: IC50, MBP mediated proliferation) [µM] | IC50 ([1]; ConA 1.25 μg/ml, read-out: IC50, ConA mediated proliferation) [µM] | proliferation [1] | number of T cell blasts ([2]; BZ52 up to 500 μM, 48 h, non-proliferating cells) | NAADP-mediated Ca2+ signalling [3] | effect of NAADP on Ca2+ signal (peak and plateau) ([3]; co-injection of BZ52 1 mM with NAADP 100 nM) | T cell proliferation ([1]; MBP-pulsed irradiated APCs, increasing concentrations of BZ194, 48 h) | proliferative response towards MBP challenge ([1]; after foregoing incubation with 0.5 mM or 1 mM BZ194) | viability and reactivity of TMBP-GFP cells ([1]; cells isolated ex vivo from BZ194-treated animals, challenge with MBP (not shown)) | amplification of pre-activated MBP-specific T cells ([2]; in the presence of BZ194)
CCCCN(CCCC)C(=O)C[n+]1cccc(C(=O)O)c1 [BZ52, 3-Carboxy-1-dibutylcarbamoylmethyl-pyridinium] | ~500 | ~100 | efficiently inhibited | did not much reduce | efficiently inhibited | almost completely antagonized | – | – | – | –
CCCCCCCCNC(=O)C[n+]1cccc(C(=O)O)c1.[Br-] [BZ194, 3-Carboxy-1-Octylcarbamoylmethyl-Pyridinium] | – | – | efficiently inhibited | – | efficiently inhibited | – | anti-proliferative effect; also recorded: dose dependently suppressed | did not block | remained viable and fully reactive | not influenced
